Results reported in paper PMC9950143 (Scientific Reports, 2023).
Entries after “also recorded” stand apart in the source; their conditions may differ. Where a name gives a salt, the structure may show the parent alone.

Legend:
[1] = system: SUDV Boniface and MARV Ci67; type: cell-based, Sudan virus, Marburg virus
[2] = human plasma maximum concentration; ref [1]–[19]; cited from earlier work
[3] = system: SUDV Boniface; experiment: microbe, parasite or virus in culture; type: cell-based, Sudan virus; conditions: for EC50: Sudan ebolavirus, HeLa, read-out: Activity against SUDV EC50
[4] = system: HeLa cells
[5] = ref PubChem compound summaries; cited from earlier work
[6] = in vitro; conditions: human
[7] = system: MARV Ci67; experiment: organism not typed; type: cell-based, Marburg virus; conditions: HeLa, read-out: Activity against MARV EC50
[8] = in vivo; cited from earlier work
[9] = system: SUDV Boniface; type: cell-based, Sudan virus
[10] = in vitro; conditions: human; remark: listed apart in the source
[11] = system: MARV Ci67; type: cell-based, Marburg virus
[12] = system: yellow fever virus (YFV); conditions: read-out: EC50 against yellow fever virus (YFV); cited from earlier work
[13] = system: West Niles virus (WNV); conditions: read-out: EC50 against West Niles virus (WNV); cited from earlier work
[14] = system: dengue virus-2 (DENV-2); conditions: read-out: EC50 against dengue virus-2 (DENV-2); cited from earlier work
[15] = system: HCV 1b replicon; conditions: read-out: EC50 against HCV 1b replicon (early studies); cited from earlier work

SMILES | Drug-drug interaction? (RDV potency) [1] | Cmax [2] | RDV CC50 when combination ([4]; human) | RDV CC50 when in combination ([4]; human) | Plasma Protein Binding [5] | effect on RDV potency in combination studies [1] | other results
O=C(O)c1cn(C2CC2)c2cc(N3CCNCC3)c(F)cc2c1=O [Ciprofloxacin] | Enhanced for SUDV |  |  |  |  |  | 
CCN(CC)Cc1cc(Nc2ccnc3cc(Cl)ccc23)ccc1O [Amodiaquine, Amodiaquine hydrochloride dihydrate] | Enhanced^5 for SUDV | 32.3 [2] ng/mL | > 2.5 µM | > 2.5 µM |  |  | fold lowering of RDV EC50 against SUDV [3]: > 5 folds
O=C1C(O)=C([C@H]2CC[C@H](c3ccc(Cl)cc3)CC2)C(=O)c2ccccc21 [Atovaquone] | No | 8300 [5, 6] ng/mL |  |  | 99.9% | minimal effect on RDV potency | CC50 ([6]; CC50 when tested alone): 8 to 17 µM; cytotoxicity of combination with RDV [4]: Enhanced cytotoxicity
[H]/N=C(\N/C(=N/[H])Nc1ccc(Cl)cc1)NC(C)C [Proguanil, Proguanil hydrochloride] | No | 918 [5] ng/mL | > 2.5 µM | > 2.5 µM |  | minimal effect on RDV potency | 
C[C@H]1[C@H](OC(=O)CCC(=O)O)O[C@@H]2O[C@@]3(C)CC[C@H]4[C@H](C)CC[C@@H]1[C@@]24OO3 [Artesunate] | No | 3260 [4] ng/mL | > 2.5 µM |  | 93% |  | 
COc1ccc2[nH]c([S+]([O-])Cc3ncc(C)c(OC)c3C)nc2c1 (stereo not drawn) [Omeprazole] | No | 598 [12] ng/mL | > 2.5 µM | > 2.5 µM |  | minimal effect on RDV potency | 
CCCCN(CCCC)CC(O)c1cc(Cl)cc2c1-c1ccc(Cl)cc1/C2=C/c1ccc(Cl)cc1 (stereo not drawn) [Lumefantrine] | Not antagonistic | 6300 [10] ng/mL | > 2.5 µM | > 2.5 µM |  |  | EC50 [3]: 9.6 ± 0.52 µM; EC50 [7]: 16.6 ± 7.3 µM; CC50 at 48 h [6]: 37.3 ± 0.9 µM; CC50 ([6]; CC50 (SUDV assay)): 40 ± 1.2 µM
Cc1ncc([N+](=O)[O-])n1CCO [Metronidazole] | No | 5100 [11] ng/mL | > 2.5 µM | > 2.5 µM | 20% | minimal effect on RDV potency | 
CC(=O)Nc1ccc(O)cc1 [Acetaminophen] | No | 11400 [1] ng/mL | > 2.5 µM | > 2.5 µM | 10–25% | minimal effect on RDV potency | 
CC(C)OC(=O)OCOP(=O)(CO[C@H](C)Cn1cnc2c(N)ncnc21)OCOC(=O)OC(C)C [Tenofovir disoproxil fumarate] | No | 300 [18, 19] ng/mL | > 2.5 µM | > 2.5 µM | <1% | minimal effect on RDV potency | 
Cc1nccn1CC1CCc2c(c3ccccc3n2C)C1=O (stereo not drawn) [Ondansetron, ondansetron hydrochloride dihydrate] | No | 106 [13] ng/mL | > 2.5 µM | > 2.5 µM | 73% | minimal effect on RDV potency | 
CO[C@H]1O[C@@H]2O[C@@]3(C)CC[C@H]4[C@H](C)CC[C@@H]([C@H]1C)[C@@]24OO3 [Artemether] | No | 198 [3] ng/mL | > 2.5 µM | > 2.5 µM | 95.4% | minimal effect on RDV potency | 
CC(C)c1nc(CN(C)C(=O)N[C@H](C(=O)N[C@@H](Cc2ccccc2)C[C@H](O)[C@H](Cc2ccccc2)NC(=O)OCc2cncs2)C(C)C)cs1 [Ritonavir] | No | 1271 [17] ng/mL |  |  |  | minimal effect on RDV potency | 
O=C1Nc2ccc(Cl)cc2[C@@](C#CC2CC2)(C(F)(F)F)O1 [Efavirenz] | Not antagonistic | 12900 [14] ng/mL |  |  | 99.5–99.75% |  | EC50 [3]: 2.24 ± 0.57 µM; EC50 [7]: 19.8 ± 0.1 µM; CC50 at 48 h [6]: 15.1 ± 4.1 µM; CC50 ([6]; CC50 (SUDV assay)): 20.7 ± 10.1 µM; CC50 ([6]; CC50 when tested alone): 14 to 28 µM; cytotoxicity of combination with RDV [4]: Enhanced cytotoxicity
Cc1cccc(C)c1OCC(=O)N[C@@H](Cc1ccccc1)[C@@H](O)C[C@H](Cc1ccccc1)NC(=O)[C@H](C(C)C)N1CCCNC1=O [Lopinavir] | No for MARV; also recorded: Not antagonistic |  | > 2.5 µM | > 2.5 µM | >98% |  | EC50 [3]: 2.32 ± 0.58 µM; EC50 [7]: > 100 µM; CC50 at 48 h [6]: > 100 µM; CC50 ([6]; CC50 (SUDV assay)): 34.1 ± 0.9 µM
Nc1ccn([C@@H]2CS[C@H](CO)O2)c(=O)n1 [Lamivudine] | No | 2600 [15] ng/mL | > 2.5 µM | > 2.5 µM | <36% | minimal effect on RDV potency | 
CO/N=C(\C(=O)N[C@@H]1C(=O)N2C(C(=O)O)=C(CSc3nc(=O)c(=O)[nH]n3C)CS[C@H]12)c1csc(N)n1 [Ceftriaxone, ceftriaxone disodium salt hemi(heptahydrate)] | Not antagonistic | 291000 [7] ng/mL | > 2.5 µM | > 2.5 µM |  |  | CC50 (SUDV assay) ([4]; human): 20.9 ± 10.1 µM
CN1C(=O)CN=C(c2ccccc2)c2cc(Cl)ccc21 [Diazepam] | No |  |  |  |  | minimal effect on RDV potency | 
NC(=O)c1nc(F)c[nH]c1=O [Favipiravir, 6-fluoro-3-oxo-3,4-dihydropyrazine-2-carboxamide] |  |  |  |  |  |  | decrease of plasma median concentration on Day 4 [8]: ~ 50%; maximum fold reduction of favipiravir EC50 in combination with RDV [9]: ≥ 21 fold; CC50 [10]: > 750 µM; maximum fold reduction of favipiravir EC50 in combination with RDV [11]: ≥ 4.8 fold
N#C[C@@]1(c2ccc3c(N)ncnn23)O[C@H](CO)[C@@H](O)[C@H]1O [GS-441524] |  |  |  |  |  |  | EC50 [12]: 11 µM; EC50 [13]: > 30 µM; EC50 [14]: 9.46 µM; EC50 [15]: 3.1 µM
